Structures can show the parent of a compound that is named as a salt.
Tested on: Erk1/2 phosphorylation
Assay: Erk1/2 Phosphorylation Assay (western blot), Panc-1
Assay type: cell-based, human
Conditions: at 10 μM, * = activation
Experimental: Protocol for Western Erk1/2 Cell-Based Phosphorylation Assay
This assay is referred to as the “Erk1/2 Phosphorylation Assay” throughout this application.
Cell lines: Human tumor-derived pancreatic cancer cell line Panc-1 (expressing KRas G12D mutant) was purchased from American Type Culture Collection and grown in complete DMEM-High Glucose medium, supplemented with penicillin (100 U/mL), streptomycin (100 μg/mL), and 10% heat-inactivated FBS at 37° C. in a humidified incubator with 5% CO2.
Method 1: Cells were plated at 350000 cells/well density in a 12-well plate, allowed 3 hours to adhere to the plate, then starved in the appropriate medium in the presence of 0.5% FBS overnight. The small molecules to be tested were added to the cells in the final concentration of 10 μM in the presence of 0.3% DMSO for 6 hours incubation at 37° C. For IC50 value determination, serial dilutions of compounds were added to cells under the same conditions. Next, cells were stimulated with 1.5 ng/ml EGF for 15 minutes then cells were lysed with lysis buffer containing 1% Triton X-100, EDTA, and Halt™ Protease & Phosphatase Inhibitor Cocktail (Thermo Scientific). Protein concentration was assessed by BCA protein assay (Thermo Scientific). Phosphorylation level of Erk1/2 was determined by western blot.
Method 2: Cells were plated at 350000 cells/well density in a 12-well plate in 10% FBS. The next day small molecules to be tested were added to the cells in the final concentration of 10 μM in the presence of 0.3% DMSO for 6 hours incubation at 37° C. For IC50 value determination, serial dilutions of compounds were added to cells under the same conditions. Next, cells were lysed with lysis buffer containing 1% Triton X-100, EDTA, and Halt™ Protease & Phosphatase Inhibitor Cocktail (Thermo Scientific). Protein concentration was assessed by BCA protein assay (Thermo Scientific). Phosphorylation level of Erk1/2 was determined by western blot.
Western blot protocol: Equal amounts of protein (15-50 μg) were separated by SDS-PAGE and transferred to nitrocellulose membranes (Invitrogen by Thermo Fisher Scientific). The membrane was stained with Ponceau S Stain (Boston BioProducts) to verify uniform protein loading. Membranes were blocked with 10% milk and phosphorylation levels of Erk1/2 were assessed by incubating overnight at 4° C. with anti-phospho-p44/42 (Thr202/Tyr204) antibody (Cell Signaling) followed by HRP-conjugated secondary antibody (Jackson Immunoresearch, West Grove, PA). Bands were incubated in Amersham ECL Prime Western Blotting Detection Reagent (GE Healthcare) and visualized using the ChemiDoc MP imaging system (Bio-Rad).

Compound | % inh of Erk1/2 phosphorylation in Panc-1
Cc1c(-c2ccn(C)n2)cn2nc(-c3nccn3C)nc(Nc3cc(OC(C)C)ccn3)c12 [Compound 136, N-(4-Isopropoxypyridin-2-yl)-5-methyl-2-(1-methyl-1H-imidazol-2-yl)-6-(1-methyl-1H-pyrazol-3-yl)pyrrolo[2,1-f][1,2,4]triazin-4-amine] | D* (85-100% activation)
Cc1c(-c2ccn(C(C)C)n2)cn2nc(-c3nccn3C)nc(Nc3nccn3C)c12 [Compound 93, 6-(1-Isopropyl-1H-pyrazol-3-yl)-5-methyl-N,2-bis(1-methyl-1H-imidazol-2-yl)pyrrolo[2,1-f][1,2,4]triazin-4-amine] | D (85-100% inhibition)
Cc1c(-c2ccn(C3CC3)n2)cn2nc(-c3nccn3C)nc(Nc3cc(OC(F)F)ccn3)c12 [Compound 139, 6-(1-Cyclopropyl-1H-pyrazol-3-yl)-N-(4-(difluoromethoxy)pyridin-2-yl)-5-methyl-2-(1-methyl-1H-imidazol-2-yl)pyrrolo[2,1-f][1,2,4]triazin-4-amine] | D* (85-100% activation)
COc1cc(-c2cn3nc(-c4nccn4C)nc(N[C@H]4C[C@@H](OC)C4)c3c2C)ccn1 [Compound 162, N-((1s,3s)-3-Methoxycyclobutyl)-6-(2-methoxypyridin-4-yl)-5-methyl-2-(1-methyl-1H-imidazol-2-yl)pyrrolo[2,1-f][1,2,4]triazin-4-amine] | A (1-25% inhibition)
Cc1c(-c2ccn(C3CC3)n2)cn2nc(-c3nccn3C)nc(O)c12 [Compound 134, 6-(1-Cyclopropyl-1H-pyrazol-3-yl)-5-methyl-2-(1-methyl-1H-imidazol-2-yl)pyrrolo[2,1-f][1,2,4]triazin-4-ol] | B (26-49% inhibition)
Cc1c(-c2ccn(C)n2)cn2nc(-c3nccn3C)nc(Nc3nccn3C)c12 [Compound 106, 5-Methyl-N,2-bis(1-methyl-1H-imidazol-2-yl)-6-(1-methyl-1H-pyrazol-3-yl)pyrrolo[2,1-f][1,2,4]triazin-4-amine] | 0 (0% inhibition)
COc1cnc(Nc2nc(-c3nccn3C)nn3cc(-c4ccn(C)n4)c(C)c23)nc1.Cl [Compound 117, N-(5-Methoxypyrimidin-2-yl)-5-methyl-2-(1-methyl-1H-imidazol-2-yl)-6-(1-methyl-1H-pyrazol-3-yl)pyrrolo[2,1-f][1,2,4]triazin-4-amine hydrochloride salt] | B (26-49% inhibition)
Cc1c(-c2ccn(C3CC3)n2)cn2nc(-c3nccn3C)nc(Nc3cc(OCCO)ccn3)c12 [Compound 146, 2-((2-((6-(1-Cyclopropyl-1H-pyrazol-3-yl)-5-methyl-2-(1-methyl-1H-imidazol-2-yl)pyrrolo[2,1-f][1,2,4]triazin-4-yl)amino)pyridin-4-yl)oxy)ethan-1-ol] | D* (85-100% activation)
COc1cc(Nc2nc(-c3nccn3C)nn3cc(-c4ccn(C(F)F)n4)c(C)c23)ncn1 [Compound 98, 6-(1-(Difluoromethyl)-1H-pyrazol-3-yl)-N-(6-methoxypyrimidin-4-yl)-5-methyl-2-(1-methyl-1H-imidazol-2-yl)pyrrolo[2,1-f][1,2,4]triazin-4-amine] | D* (85-100% activation)
CO[C@H]1C[C@H](Nc2nc(-c3nccn3C)nn3cc(-c4ccn(C)n4)c(C)c23)C1 [Compound 103, N-((1r,3r)-3-Methoxycyclobutyl)-5-methyl-2-(1-methyl-1H-imidazol-2-yl)-6-(1-methyl-1H-pyrazol-3-yl)pyrrolo[2,1-f][1,2,4]triazin-4-amine hydrochloride salt] | A* (1-25% activation)
Cc1c(-c2ccn(C(C)C)n2)cn2nc(-c3nccn3C)nc(Nc3nccc(OCCN(C)C)n3)c12 [Compound 96, N-(4-(2-(Dimethylamino)ethoxy)pyrimidin-2-yl)-6-(1-isopropyl-1H-pyrazol-3-yl)-5-methyl-2-(1-methyl-1H-imidazol-2-yl)pyrrolo[2,1-f][1,2,4]triazin-4-amine] | 0 (0% inhibition)
COc1cc(Nc2nc(-c3nccn3C)nn3cc(-c4ccccn4)c(C)c23)ncn1 [Compound 94, N-(6-Methoxypyrimidin-4-yl)-5-methyl-2-(1-methyl-1H-imidazol-2-yl)-6-(pyridin-2-yl)pyrrolo[2,1-f][1,2,4]triazin-4-amine] | C* (46-84% activation)
Cc1c(-c2ccn(C(C)C)n2)cn2nc(-c3nccn3C)nc(Nc3nccc(OCCO)n3)c12 [Compound 121, 2-((2-((6-(1-Isopropyl-1H-pyrazol-3-yl)-5-methyl-2-(1-methyl-1H-imidazol-2-yl)pyrrolo[2,1-f][1,2,4]triazin-4-yl)amino)pyrimidin-4-yl)oxy)ethan-1-ol] | D* (85-100% activation)
Cc1c(-c2ccn(C)n2)cn2nc(-c3nccn3C)nc(Nc3n[nH]c(C4CC4)n3)c12 [Compound 113, N-(5-Cyclopropyl-1H-1,2,4-triazol-3-yl)-5-methyl-2-(1-methyl-1H-imidazol-2-yl)-6-(1-methyl-1H-pyrazol-3-yl)pyrrolo[2,1-f][1,2,4]triazin-4-amine] | D* (85-100% activation)
Cc1c(-c2ccn(C(C)C)n2)cn2nc(-c3ccccn3)nc(O)c12 [Compound 8, 6-(1-Isopropyl-1H-pyrazol-3-yl)-5-methyl-2-(pyridin-2-yl)pyrrolo[2,1-f][1,2,4]triazin-4-ol] | 0 (0% inhibition)
Cc1c(-c2ccn(C3CC3)n2)cn2nc(-c3nccn3C)nc(Nc3cc(OCCN(C)C)ccn3)c12 [Compound 147, 6-(1-Cyclopropyl-1H-pyrazol-3-yl)-N-(4-(2-(dimethylamino)ethoxy)pyridin-2-yl)-5-methyl-2-(1-methyl-1H-imidazol-2-yl)pyrrolo[2,1-f][1,2,4]triazin-4-amine] | A* (1-25% activation)
Cc1c(-c2ccn(C3CC3)n2)cn2nc(-c3nccn3C)nc(Nc3cc(OCC(F)(F)F)ccn3)c12 [Compound 140, 6-(1-Cyclopropyl-1H-pyrazol-3-yl)-5-methyl-2-(1-methyl-1H-imidazol-2-yl)-N-(4-(2,2,2-trifluoroethoxy)pyridin-2-yl)pyrrolo[2,1-f][1,2,4]triazin-4-amine] | D* (85-100% activation)
COc1ccnc(Nc2nc(-c3nccn3C)nn3cc(-c4cccnc4)c(-c4ccccn4)c23)c1 [Compound 166, N-(4-Methoxypyridin-2-yl)-2-(1-methyl-1H-imidazol-2-yl)-5-(pyridin-2-yl)-6-(pyridin-3-yl)pyrrolo[2,1-f][1,2,4]triazin-4-amine] | B* (26-49% activation)
Cc1c(-c2ccn(C(C)C)n2)cn2nc(-c3nccn3C)nc(Nc3cc(OCCO)ncn3)c12 [Compound 97, 2-((6-((6-(1-Isopropyl-1H-pyrazol-3-yl)-5-methyl-2-(1-methyl-1H-imidazol-2-yl)pyrrolo[2,1-f][1,2,4]triazin-4-yl)amino)pyrimidin-4-yl)oxy) ethan-1-ol] | D* (85-100% activation)
Cc1c(-c2ccn(C)n2)cn2nc(-c3nccn3C)nc(Nc3cnccn3)c12 [Compound 120, 5-Methyl-2-(1-methyl-1H-imidazol-2-yl)-6-(1-methyl-1H-pyrazol-3-yl)-N-(pyrazin-2-yl)pyrrolo[2,1-f][1,2,4]triazin-4-amine] | C* (46-84% activation)
